Test results: patent US20170087180A1, “METHODS AND COMPOSITIONS FOR TREATING NITRIC OXIDE DEFICIENCY DISORDERS AND RELATED CONDITIONS” (Sulfagenix, Inc., priority 2014, published 2017)

System: men with oligoasthenozoospermia
Assay: placebo-controlled randomized study of SG1002 compared to resveratrol in men with oligoasthenozoospermia
Assay type: in vivo
Conditions: SG1002 500 mg daily, resveratrol 50 mg daily, 54 men
Experimental: There was one placebo-controlled randomized study of SG1002,500 mg daily compared to resveratrol 50 mg daily in 54 men with oligoasthenozoospermia. Men treated with SG1002 had increased sperm concentration, motility and motile forms recovery compared to those treated with placebo. Resveratrol had no effect on any of these parameters. During the study, three men in the SG1002 arm withdrew: one due to excessive flatulence and nausea, one due to “smelly” sweating, and one for convenience.

Oc1ccc(C=Cc2cc(O)cc(O)c2)cc1 [Resveratrol, resveratrol]
no effect: motile forms recovery | sperm concentration | sperm motility
